Like-named read-outs stand apart in the source and are kept apart here.
How the values were obtained:
[1] = molecular target: T1, SARS-CoV-2 nsp14 (Severe acute respiratory syndrome coronavirus 2, UniProt P0DTD1); assay: Circular dichroism spectroscopy of nsp14 (BeStSel); settings: CD deconvoluted by BeStSel; around 65% in untreated nsp14
[2] = molecular target: T1, SARS-CoV-2 nsp14; assay: Metal displacement analysis (equilibrium dialysis, ICP-MS), nsp14; assay type: binding
Excerpt: (§1) Since nsp14 and nsp10 have 3 and 2 zinc-finger motifs respectively, playing structural roles and as well as being important to the functions of nsp14/nsp10 complex. The soft nature of Au(I) makes it very likely to bind to the thiolates/nitrogen atoms in these cysteine/histidine-rich zinc-binding sites. To verify this, we then investigated the binding of Au(I) to the native nsp14 and nsp10 using equilibrium dialysis and determined the metal contents by inductively coupled plasma mass spectrometry (ICP-MS). […] Similarly, ca. 1.84 ± 0.66 mol equiv of Au(I) bound to per nsp10, accompanied by ca. 1.89 ± 0.28 mol equiv of Zn(II) release. […] In addition, since the ExoN activity of nsp14 is largely stimulated by nsp10, and nsp10 − nsp14 intermolecular interaction involves residues around the zinc finger of nsp10 [33, 34], we also examined the influence of Au(I) binding to nsp10 on the ExoN activity of nsp14.
(§2) Au(I) binding and Zn(II) release on nsp10 and nsp14 were determined by Inductively Coupled Plasma Mass Spectrometry (ICP-MS) on Agilent 7700 × ICP-MS (Agilent Technologies). […] Dialysis tubes loaded with 100 μL Zn-bound proteins (5 μM for nsp14 and nsp13 and 20 μM for nsp10) or protein buffer were placed into 50 mL dialysis buffer in the presence of different concentrations of Au(I) compounds (as Au(PEt3)Cl) with mild shaking at 18 °C overnight. The protein concentration was measured by bicinchoninic acid (BCA) assay, and the metal concentration of solution both inside and outside the dialysis tubes was determined by ICP-MS.

[3] = molecular target: T1, SARS-CoV-2 nsp14; assay type: biochemical; settings: for Km: increasing molar equivalents of Au(I); for IC50: read-out: IC50 (± SD) MTase
[4] = molecular target: SARS-CoV-2 nsp14/nsp10 complex (Severe acute respiratory syndrome coronavirus 2, UniProt P0DTD1); assay: FRET-based exoribonuclease (ExoN) activity assay; assay type: biochemical; settings: for IC50: nsp14/nsp10 pre-incubated with compound 1 h, n = 3, read-out: IC50 (± SD) ExoN
[5] = molecular target: SARS-CoV-2 nsp10 (Severe acute respiratory syndrome coronavirus 2, UniProt P0DTD1); assay: Metal displacement analysis (equilibrium dialysis, ICP-MS), nsp10; assay type: binding
Excerpt: as §1, §2

[6] = molecular target: T1, SARS-CoV-2 nsp14; assay: EMSA of nsp14 binding to dsRNA ExoN substrate; settings: 4 µM nsp14, 0–40 µM drug, 200 nM dsRNA
Excerpt: Next, we explored the inhibition mechanism of nsp14/nsp10 by Au(I). We first investigated the inhibition mode of Au(I) on the dual activities of nsp14, for which we selected Au(PEt3)Cl as a showcase. To explore the influence of Au(I) on the kinetics of the nsp14/nsp10 ExoN activity, a 20-nucleotide 5′-dU overhang conjugated to a Cy3/BHQ2 pair was used as an RNA duplex substrate. Then, the reciprocals of the reaction velocity and the concentration of the two substrates were used to plot the Lineweaver–Burk plot. And the Michaelis–Menten constant (Km) and the maximum reaction rate (Vmax) were calculated by nonlinear fitting to the Michaelis − Menten equation.
RNA-binding capability of nsp14 was determined by EMSA. […] For the bismuth(III) and Au(I) addition assays, nsp14 (4 µM) was pre-incubated with various concentrations of drugs (0, 1, 2, 4, 8, 20, 40 µM) in HEPES buffer for 2 h on ice before the RNA-binding assays before incubating with 200 nM of dsRNA at room temperature for 15 min. A 20 µL of the reaction mixture was then loaded onto 6% native-polyacrylamide gels and electrophoresed in 1xTBE buffer. Electrophoresis was carried out at 100 V for 50 min. Gels were subsequently stained by GelRed (Sigma Aldrich) for 5 min at room temperature and visualized through iBright™ CL750 Imaging System (Thermo Fisher Scientific).
ExoN substrates. Relative band intensities were quantified by ImageJ. […]

[7] = molecular target: T1, SARS-CoV-2 nsp14; assay: Size-exclusion chromatography of nsp14; settings: 0−10 molar equivalents; monomer peak 9.6 mL decreases, peak at ca. 9.1 mL appears
[8] = test system: SARS-CoV-2 Omicron BA.5 in VeroE6-TMPRSS2 cells; assay: Plaque reduction assay; assay type: cell-based; settings: VeroE6-TMPRSS2, n = 2, read-out: EC50, inhibition of SARS-CoV-2 virus replication
[9] = molecular target: nsp14 (ExoN/N7-MTase) (SARS-CoV-2 isolate Wuhan-Hu-1, UniProt P0DTD1 5926-6452); assay: EMSA; no Au(I); 200 nM dsRNA, nsp14 0-8 uM; settings: protein: recombinant; tags: N-terminal 6xHis, removed with thrombin; label: 5'-Cy3 on top strand; labels in EMSA not restated
[10] = nsp14 pre-incubated with compound 1 h, n = 3

CCP(CC)CC.[Au+].[Cl-] [Au(PEt3)Cl, chloro(triethylphosphine)gold(I)]
helix content in nsp14 after treatment [1]: 36% | Au(I) bound per nsp14 ([2]; equilibrium dialysis, ICP-MS): ca. 2.95 ± 0.23 mol equiv | Zn(II) release from nsp14 ([2]; equilibrium dialysis, ICP-MS): ca. 2.56 ± 0.21 mol equiv | maximal binding capacity (Bmax), nsp14 ([2]; fit to specific binding plot): 3.10 ± 0.32 | Kd ([2]; fit to specific binding plot, read-out: dissociation constant (Kd), nsp14): 6.54 ± 0.33 µM | Vmax, G(5′)ppp(5′)A RNA-dependent MTase kinetics [3]: 0.12 µM/min | Vmax, SAM-dependent MTase kinetics [3]: 0.09 µM/min | mode of inhibition of MTase activity ([3]; SAM- and GpppA-RNA-dependent kinetics): noncompetitive | Km ([3]; read-out: Km, G(5′)ppp(5′)A RNA-dependent MTase kinetics): 1.18 ± 0.02 µM | Km ([3]; read-out: Km, SAM-dependent MTase kinetics): 1.62 ± 0.02 µM | IC50 [3, 10]: 4.5 ± 0.98 µM | mode of inhibition of ExoN activity ([4]; Lineweaver–Burk / Michaelis–Menten analysis): noncompetitive | Vmax, ExoN kinetics ([4]; decreased from 2.7 with different molar equivalents of Au(I)): 0.5 nM/min | IC50 [4]: 0.38 ± 0.04 µM | Au(I) bound per nsp10 ([5]; equilibrium dialysis, ICP-MS): ca. 1.84 ± 0.66 mol equiv | Zn(II) release from nsp10 ([5]; equilibrium dialysis, ICP-MS): ca. 1.89 ± 0.28 mol equiv | maximal binding capacity (Bmax), nsp10 ([5]; fit to specific binding plot): 1.75 ± 0.60 | Kd ([5]; fit to specific binding plot, read-out: dissociation constant (Kd), nsp10): 6.55 ± 0.77 µM | effect on formation of the nsp14−RNA complex [6]: negligible effects | effect on quaternary structure of nsp14 [7]: partial oligomerization

[Cl][Au] [AuCl, gold(I) chloride]
IC50 [3, 10]: 0.91 ± 0.01 µM | IC50 [4]: 5.78 ± 0.31 µM

O=S(=O)([O-])[S-].O=S(=O)([O-])[S-].[Au+].[Na+].[Na+].[Na+] [Na3Au(S2O3)2, gold(I) sodium thiosulfate]
IC50 [3]: 1.77 ± 0.01 µM | IC50 [4]: 1.71 ± 0.09 µM

[Cl][Au][PH]12CN3CN(CN(C3)C1)C2 [Urotropine-Au-Cl]
ExoN enzyme activity remaining ([4]; 50 mol equiv of compound): 0.68%

CC(=O)OC[C@H]1O[C@@H]([S-])[C@H](OC(C)=O)[C@@H](OC(C)=O)[C@@H]1OC(C)=O.CCP(CC)CC.[Au+] [auranofin]
EC50 [8]: 0.73 ± 0.21 µM

(1-(adamantan-1-yl)thiourea)-(triethylphosphine)-gold(I) [Au-amantadine]
IC50 [3, 10]: 8.16 ± 0.18 µM | IC50 [4]: 1.57 ± 0.12 µM

B1: ExoN substrate dsRNA (dsRNA)
RNA 1: GGUAGUAAUCCGCUC
RNA 2: UUUUUUUUUUUUUUUUUUUUGAGCGGAUUACUACUACC
binding result [9]: binds
